Laboratory results taken from patent publication US11401510B2, “Generation of airway basal stem cells from human pluripotent stem cells” (TRUSTEES OF BOSTON UNIVERSITY, priority 2020, dated 2022).

How the values were obtained:
[1] = molecular target: CFTR in ALI cultures generated from corrected CF iPSCs (Corr CF) (Homo sapiens, UniProt P13569); test: Ussing chamber analysis of CFTR-dependent current, corrected CF ALI cultures; settings: Corr CF (gene-corrected) iPSC-derived ALI cultures, after amiloride; mean±SD, n=3
Method: For CF modeling, gene editing was used to correct the F508del CFTR mutation. Pre- and post-gene corrected paired syngeneic iPSC clones (hereafter CF and Corr CF) were differentiated into iBCs in the present protocol, sorted using the present antibody-based-method and generated ALI cultures composed of BCs, SCs, and MCCs (FIG. 6A). CFTR-dependent current, representing ion flux regulated by apically localized CFTR, was measured using the gold-standard Ussing chamber approach.
Ussing chamber experiments were performed on EasyMount Ussing Chamber Systems at voltage clamp mode, and Acquiciliare™ & Analyze software (Physiologic Instruments) was employed to record and analyze data. Briefly, Transwell inserts were mounted into chambers and bathed in low chloride Ringer's solution (1.2 mM NaCl, 140 mM Na-gluconate, 25 mM NaHCO3, 3.33 mM KH2PO4, 0.83 mM K2HPO4, 1.2 mM CaCl2, 1.2 mM MgCl2, 10 mM glucose) at apical and Ringer's solution (120 mM NaCl, 25 mM NaHCO3, 3.33 mM KH2PO4, 0.83 mM K2HPO4, 1.2 mM CaCl2, 1.2 mM MgCl2, 10 mM glucose) at basolateral side of monolayer. After base line is stabilized, 100 pM amiloride (Sigma) applied to both sides of the chamber to carry out complete inhibition of ENaC (Epithelial sodium channel). Subsequently, 10 pM forskolin (Sigma) were administered to stimulate chloride current. […] The resulting change in short circuit current was calculated as DIsc. […]

[2] = molecular target: CFTR (F508del) in ALI cultures generated from CF iPSCs (Homo sapiens, UniProt P13569, DEL508-508); test: Ussing chamber analysis of CFTR-dependent current, CF ALI cultures; type: cell-based; settings: CF (F508del homozygous) iPSC-derived ALI cultures, after amiloride
Method: Pre- and post-gene corrected paired syngeneic iPSC clones (hereafter CF and Corr CF) were differentiated into iBCs in the present protocol, sorted using the present antibody-based-method and generated ALI cultures composed of BCs, SCs, and MCCs (FIG. 6A). CFTR-dependent current, representing ion flux regulated by apically localized CFTR, was measured using the gold-standard Ussing chamber approach.
Ussing chamber experiments were performed on EasyMount Ussing Chamber Systems at voltage clamp mode, and Acquiciliare™ & Analyze software (Physiologic Instruments) was employed to record and analyze data. […] Subsequently, 10 pM forskolin (Sigma) were administered to stimulate chloride current. […] For BU3 NGPT derived ALI, 5 pM VX-770, CFTR modulator, was treated subsequent to forskolin. The resulting change in short circuit current was calculated as DIsc. The data were expressed in mean±SD.

[3] = system: BU3 NGPT iBC-derived ALI cultures; test: Mucus cell metaplasia model: IL-13 treatment of iBC-derived ALI cultures; type: cell-based, human
Method: Human airway epithelium has diverse biologic and physiologic roles, some of which are uniquely affected by disease. it was tested whether iBC-derived ALI cultures could recapitulate features of the three airway disorders with distinct epithelial characteristics: (1) mucus cell metaplasia in asthma; (2) abnormal ion-flux seen in CF; and (3) defective ciliary beating seen in PCD. First, it was tested whether iBC-derived ALI cultures could recapitulate the mucus cell metaplasia seen in asthma. Interleukin-13 (IL-13) is an inflammatory cytokine in asthma and can induce mucus metaplasia. A number of studies, in mice and primary human airway epithelial cell cultures, have found IL-13 leads to increased MUC5AC+ cell numbers via the activation of STAT6 and SPDEF, at the expense of MCCs and MUC5B+ cell frequencies (Kondo et al., 2002; Seibold, 2018; Woodruff et al., 2009).
BU3 NGPT iBSC-derived ALI culture was prepared as described above. Ten days after air-lifted, cells were treated with 10 ng/ml IL-13 and cultured for 10 days prior to the assessments. Mucus cell metaplasia was assessed by immunofluorescence staining for the increment of MUC5AC expressing cells or gene expression changes via qRT-PCR. Quantification of MUC5AC+ cells was performed using ImageJ™ software by manually counting MUC5AC+ cells in 3 randomly selected fields per well (n=3 wells per condition).
RNA was extracted by first lysing cells in QIAzol (QIAGEN) and subsequently using the RNeasy Mini kit (QIAGEN). Taqman Fast Universal PCR mastermix (Applied Biosystems) were used to reverse transcribe RNA into cDNA and analyzed during 40 cycles of real time PCR using Taqman probes (Applied Biosystems). Relative gene expression, normalized to 18S control, was calculated as fold change in 18S-normalized gene expression, over baseline, using the 2(-DDCT) method. Baseline, defined as fold change=1, was set to undifferentiated iPSCs. If undetected, a cycle number of 40 was assigned to allow fold change calculations.

[4] = IL-13 treated vs untreated, qRT-PCR

Chain of CFTR in ALI cultures generated from corrected CF iPSCs (Corr CF) (P13569 whole entry): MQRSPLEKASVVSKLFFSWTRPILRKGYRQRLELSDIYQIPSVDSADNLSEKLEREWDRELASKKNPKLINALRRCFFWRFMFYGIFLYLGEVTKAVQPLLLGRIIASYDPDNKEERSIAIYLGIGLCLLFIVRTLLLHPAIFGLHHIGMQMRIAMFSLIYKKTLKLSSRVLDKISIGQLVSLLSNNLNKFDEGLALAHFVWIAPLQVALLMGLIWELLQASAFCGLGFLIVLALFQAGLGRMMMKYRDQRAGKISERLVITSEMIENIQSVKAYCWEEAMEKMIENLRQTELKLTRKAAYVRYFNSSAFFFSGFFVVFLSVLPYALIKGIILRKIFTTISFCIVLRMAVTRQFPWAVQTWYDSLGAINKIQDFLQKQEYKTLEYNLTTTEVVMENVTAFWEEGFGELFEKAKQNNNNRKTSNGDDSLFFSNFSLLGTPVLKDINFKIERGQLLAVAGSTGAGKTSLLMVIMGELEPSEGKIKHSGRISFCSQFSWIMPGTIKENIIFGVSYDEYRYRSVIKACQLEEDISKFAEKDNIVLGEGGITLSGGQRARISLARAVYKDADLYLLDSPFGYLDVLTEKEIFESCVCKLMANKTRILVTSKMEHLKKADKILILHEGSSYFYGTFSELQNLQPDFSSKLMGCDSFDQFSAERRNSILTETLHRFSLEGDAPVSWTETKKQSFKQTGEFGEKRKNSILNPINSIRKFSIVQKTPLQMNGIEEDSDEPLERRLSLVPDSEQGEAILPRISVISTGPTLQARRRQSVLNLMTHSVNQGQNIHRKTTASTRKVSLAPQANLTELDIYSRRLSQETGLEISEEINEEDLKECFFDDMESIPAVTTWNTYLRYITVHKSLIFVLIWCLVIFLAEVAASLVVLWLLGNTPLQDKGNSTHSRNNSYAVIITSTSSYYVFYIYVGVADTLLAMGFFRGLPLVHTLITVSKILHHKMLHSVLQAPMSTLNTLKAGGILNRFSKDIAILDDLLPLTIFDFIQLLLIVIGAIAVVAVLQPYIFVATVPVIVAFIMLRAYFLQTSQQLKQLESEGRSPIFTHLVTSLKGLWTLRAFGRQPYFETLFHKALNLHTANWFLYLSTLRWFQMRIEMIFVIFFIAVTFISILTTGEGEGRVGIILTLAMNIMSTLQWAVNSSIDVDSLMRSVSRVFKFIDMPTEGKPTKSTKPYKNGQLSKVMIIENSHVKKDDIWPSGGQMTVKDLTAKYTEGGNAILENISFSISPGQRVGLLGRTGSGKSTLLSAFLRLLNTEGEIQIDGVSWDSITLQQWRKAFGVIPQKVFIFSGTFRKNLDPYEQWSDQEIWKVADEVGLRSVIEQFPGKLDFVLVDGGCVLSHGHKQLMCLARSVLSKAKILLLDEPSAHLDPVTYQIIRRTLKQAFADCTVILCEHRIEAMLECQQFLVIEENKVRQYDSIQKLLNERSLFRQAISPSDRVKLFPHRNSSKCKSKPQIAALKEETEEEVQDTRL
Chain of CFTR (F508del) in ALI cultures generated from CF iPSCs (P13569 with tags, fused parts or gaps DEL508-508): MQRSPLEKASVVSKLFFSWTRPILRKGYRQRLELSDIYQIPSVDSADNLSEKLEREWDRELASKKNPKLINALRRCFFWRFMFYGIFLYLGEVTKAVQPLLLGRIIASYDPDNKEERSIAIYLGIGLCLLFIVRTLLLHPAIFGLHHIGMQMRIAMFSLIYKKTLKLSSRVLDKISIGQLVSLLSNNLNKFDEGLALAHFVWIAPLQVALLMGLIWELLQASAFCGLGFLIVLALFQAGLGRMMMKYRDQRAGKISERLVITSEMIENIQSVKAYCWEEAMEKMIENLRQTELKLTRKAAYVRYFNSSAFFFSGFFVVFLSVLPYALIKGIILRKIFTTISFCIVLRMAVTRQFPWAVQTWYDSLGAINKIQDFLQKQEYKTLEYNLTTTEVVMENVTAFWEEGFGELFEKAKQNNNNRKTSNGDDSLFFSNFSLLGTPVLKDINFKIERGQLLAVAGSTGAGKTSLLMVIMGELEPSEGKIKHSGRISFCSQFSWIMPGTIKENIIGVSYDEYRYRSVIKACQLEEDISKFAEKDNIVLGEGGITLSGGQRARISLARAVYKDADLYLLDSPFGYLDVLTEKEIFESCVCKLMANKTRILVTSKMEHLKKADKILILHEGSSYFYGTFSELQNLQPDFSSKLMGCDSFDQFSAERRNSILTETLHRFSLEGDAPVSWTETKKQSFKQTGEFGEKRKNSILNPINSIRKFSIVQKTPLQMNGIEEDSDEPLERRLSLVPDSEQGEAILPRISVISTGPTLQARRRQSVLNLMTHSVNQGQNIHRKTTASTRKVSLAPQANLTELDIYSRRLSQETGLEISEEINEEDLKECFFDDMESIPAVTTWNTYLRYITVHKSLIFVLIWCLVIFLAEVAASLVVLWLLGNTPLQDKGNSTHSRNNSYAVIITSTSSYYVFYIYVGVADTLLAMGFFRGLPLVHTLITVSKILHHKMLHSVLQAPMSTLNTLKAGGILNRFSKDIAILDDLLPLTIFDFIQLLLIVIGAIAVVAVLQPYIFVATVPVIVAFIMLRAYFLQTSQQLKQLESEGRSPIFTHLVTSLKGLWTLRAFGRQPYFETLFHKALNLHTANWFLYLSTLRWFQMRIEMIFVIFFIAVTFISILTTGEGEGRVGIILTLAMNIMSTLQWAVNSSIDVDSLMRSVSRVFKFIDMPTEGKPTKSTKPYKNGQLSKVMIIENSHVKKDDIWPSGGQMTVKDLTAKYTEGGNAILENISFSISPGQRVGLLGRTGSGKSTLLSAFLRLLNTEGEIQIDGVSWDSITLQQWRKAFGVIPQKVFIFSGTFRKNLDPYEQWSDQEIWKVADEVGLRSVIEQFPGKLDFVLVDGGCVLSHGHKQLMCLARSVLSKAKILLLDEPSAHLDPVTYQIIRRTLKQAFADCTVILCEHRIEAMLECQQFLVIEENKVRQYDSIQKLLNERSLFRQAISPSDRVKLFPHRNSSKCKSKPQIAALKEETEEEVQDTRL

Row | Substance | AIsc (change in short circuit current) [1] | AIsc (change in short circuit current) [2] | fold increase in numbers of MUC5AC+ cells ([3]; 10 ng/ml IL-13 added on day 10 of ALI differentiation, 10 days, vs untreated, p=0.002) | MUC5B expression [3, 4] | expression of goblet cell transcriptional regulator SPDEF [3, 4]
1 | CFTRInh-172 | −43.2±2.5 pA/cm2 | −0.8 pA/cm2 | – | – | –
2 | IL-13: inflammatory Th-2 cytokine in asthma that can induce mucus metaplasia | – | – | 1.75 fold | decrease | increased expression
